What was measured:
[1] = target: T1, MtbTMPK (M. tuberculosis thymidylate kinase) (Mycobacterium tuberculosis, UniProt P9WKE1); test: coupled spectrophotometric assay (NADH, […] nm); assay type: biochemical; conditions: read-out: IC50MtbTMPK
T1 construct: gene tmk

[2] = target: T1, MtbTMPK (M. tuberculosis thymidylate kinase); test: coupled spectrophotometric assay (NADH, […] nm); assay type: biochemical; conditions: 0.5 mM ATP, 0.05 mM dTMP, 2 mM MgCl2, 50 mM KCl, 50 mM Tris-HCl pH 7.4, 30 °C; unreliable (above the highest tested concentration of 0.12 mM)

T1 sequence (P9WKE1 whole entry, looked up): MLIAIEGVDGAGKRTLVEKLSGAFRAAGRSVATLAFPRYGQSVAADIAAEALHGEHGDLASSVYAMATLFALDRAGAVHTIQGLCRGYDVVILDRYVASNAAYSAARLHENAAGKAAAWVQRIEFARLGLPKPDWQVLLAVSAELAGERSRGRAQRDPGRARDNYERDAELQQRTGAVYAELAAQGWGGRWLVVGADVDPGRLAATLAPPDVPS

| Structure (SMILES) | IC50 [1] | IC50MtbTMPK [2] |
| --- | --- | --- |
| Cc1cn(C2CCCN(C(=O)c3cccc(Oc4cccc(C(F)(F)F)c4)c3)C2)c(=O)[nH]c1=O (stereo not drawn) [4f] | 53 ± 12 µM |  |
| Cc1cn(C2CCCN(C(=O)c3cccc(Oc4ccc(Cl)c(Cl)c4)c3)C2)c(=O)[nH]c1=O (stereo not drawn) [4g] | 18 ± 1 µM |  |
| Cc1cn(C2CCCN(C(=O)c3cccc(Oc4ccc(F)cc4)c3)C2)c(=O)[nH]c1=O (stereo not drawn) [4d] | 18 ± 1 µM |  |
| Cc1cn(C2CCCN(C(=O)c3cccc(Oc4cc(Cl)cc(Cl)c4)c3)C2)c(=O)[nH]c1=O (stereo not drawn) [4i] | 13 ± 1 µM |  |
| Cc1cn(C2CCCN(C(=O)c3cccc(Oc4cccc(N(C)C)c4)c3)C2)c(=O)[nH]c1=O (stereo not drawn) [4a] | 39 ± 3 µM |  |
| Cc1cn(C2CCCN(C(=O)c3cccc(Oc4cc(F)cc(F)c4)c3)C2)c(=O)[nH]c1=O (stereo not drawn) [4j] | 31 ± 2 µM |  |
| Cc1cn(C2CCCN(C(=O)c3cccc(Oc4ccc(F)c(F)c4)c3)C2)c(=O)[nH]c1=O (stereo not drawn) [4h] | 23 ± 1 µM |  |
| COc1cccc(Oc2cccc(C(=O)N3CCCC(n4cc(C)c(=O)[nH]c4=O)C3)c2)c1 (stereo not drawn) [4b] | 15 ± 1 µM |  |
| Cc1cn(C2CCCN(C(=O)c3cccc(Oc4cc(C(F)(F)F)cc(C(F)(F)F)c4)c3)C2)c(=O)[nH]c1=O (stereo not drawn) [4k] |  | 158 ± 89 µM |
| Cc1cn(C2CCCN(C(=O)c3cccc(Oc4ccccc4)c3)C2)c(=O)[nH]c1=O (racemic) [compound 3, 3] | 28 ± 2 µM |  |
| Cc1cn(C2CCCN(C(=O)c3cccc(Oc4ccc([N+](=O)[O-])cc4)c3)C2)c(=O)[nH]c1=O (stereo not drawn) [4e] | 30 ± 3 µM |  |
| Cc1cn(C2CCCN(C(=O)c3cccc(Oc4ccc(Cl)cc4)c3)C2)c(=O)[nH]c1=O (stereo not drawn) [4c] | 39 ± 19 µM |  |

From publication PMC6920704, “1-(Piperidin-3-yl)thymine amides as inhibitors of M. tuberculosis thymidylate kinase” (Journal of Enzyme Inhibition and Medicinal Chemistry, 2019)
